Like-named read-outs stand apart in the source and are kept apart here.
Columns and labels:
[1] = test system: SCC-15 human squamous carcinoma cells; test: Cytotoxicity, neutral red uptake (NR) assay; type: cell-based; settings: Homo sapiens
Protocol: (§1) Biological effect of alvaxanthone and rheediaxanthone B on normal (BJ) and cancer cells (U-118 MG and SCC-15) was estimated using two viability assays, the neutral red uptake (NR) and tetrazolium salts reduction (XTT) assays.
(§2) Human glioblastoma cells U-118 MG (ATCC® HTB-15), human squamous carcinoma cells SCC-15 (ATCC® CRL-1623), and normal human skin fibroblasts (ATCC® CRL-2522) were grown, their morphology checked, and number and viability estimated as earlier presented.
(§3) Influence of selected compounds on cells was tested by performing the cytotoxicity (NR and XTT) assays, proliferation assay, cell adhesion assay, cell migration assay, determination of intracellular ATP level, and apoptosis assay as previously reported.

[2] = test system: U-118 MG human glioblastoma cells; test: Cytotoxicity, neutral red uptake (NR) assay; type: cell-based
Protocol: as §1, §2, §3

hTS = molecular target: T1, hTS (Homo sapiens, UniProt P04818); test: Inhibition of TS-catalyzed reaction (tritium release from [5-3H]dUMP); type: biochemical; settings: for IC50: read-out: IC50 Assessment
T1 construct: made in house
Text: (§4) The recombinant human, rat, mouse, T. spiralis and C. elegans TS proteins were produced, purified and separated into phosphorylated and non-phosphorylated fraction, as previously described. TS activity was monitored, following tritium release from [5-^3H]dUMP, and its inhibition studied as earlier reported.

mTS = molecular target: T2, mTS (Mus musculus, UniProt P07607); test: as above; type: biochemical
T2 construct: made in house
Text: as §4

TsTS = TsTS (Trichinella spiralis, UniProt Q9NDD3); test: as above; type: biochemical, T. spiralis; settings: 20 µM dUMP; for IC50: IC50 Assessment; for remaining activity at 1000 µM: compound 1000 µM; for remaining activity at 100 µM: compound 100 µM
Text: as §4

CeTS = molecular target: T3, CeTS (Caenorhabditis elegans, UniProt Q9Y052); test: as above; type: biochemical, C. elegans
T3 sequence (Q9Y052 1-315): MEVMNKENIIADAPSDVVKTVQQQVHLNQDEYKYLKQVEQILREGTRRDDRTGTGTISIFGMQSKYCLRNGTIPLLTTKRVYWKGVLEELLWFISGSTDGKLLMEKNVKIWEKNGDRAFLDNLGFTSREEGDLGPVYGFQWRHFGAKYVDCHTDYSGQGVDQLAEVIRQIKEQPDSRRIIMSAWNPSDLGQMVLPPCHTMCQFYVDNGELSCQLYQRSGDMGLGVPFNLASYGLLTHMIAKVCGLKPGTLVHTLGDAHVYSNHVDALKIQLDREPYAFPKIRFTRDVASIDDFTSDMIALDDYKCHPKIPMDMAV
Text: as §4

[3] = test system: BJ normal human skin fibroblasts; test: Cytotoxicity, neutral red uptake (NR) assay; type: cell-based; settings: Homo sapiens, Skin fibroblast
Protocol: as §1, §2, §3

C. elegans = test: Toxicity to C. elegans (population growth); settings: in vivo
Protocol: C. elegans was maintained as previously described. The effect of the compounds studied on C. elegans population growth was determined as earlier presented.

[4] = SCC-15, neutral red assay, read-out: IC50
[5] = neutral red assay, U-118 MG, read-out: IC50
[6] = compound 1000 µM, 20 µM dUMP, 50 µM meTHF, read-out: % Remaining Activity
[7] = 20 µM dUMP, 50 µM meTHF, read-out: IC50 Assessment
[8] = neutral red assay, BJ, read-out: IC50
[9] = compound 100 µM, 20 µM dUMP, 50 µM meTHF, read-out: % Remaining Activity
[10] = compound 10 µM, 20 µM dUMP, 250 µM meTHF
[11] = compound 100 µM, 20 µM dUMP, 250 µM meTHF, read-out: % Remaining Activity
[12] = compound 1000 µM, 20 µM dUMP, 250 µM meTHF, read-out: % Remaining Activity
[13] = 20 µM dUMP, 250 µM meTHF, read-out: IC50 Assessment
[14] = IC50 Assessment, 20 µM dUMP, 250 µM meTHF
[15] = compound 667 µM, 20 µM dUMP, 250 µM meTHF
[16] = compound 50 µM, 20 µM dUMP, 250 µM meTHF
[17] = compound 500 µM, 20 µM dUMP, 250 µM meTHF

T1 sequence (P04818 whole entry): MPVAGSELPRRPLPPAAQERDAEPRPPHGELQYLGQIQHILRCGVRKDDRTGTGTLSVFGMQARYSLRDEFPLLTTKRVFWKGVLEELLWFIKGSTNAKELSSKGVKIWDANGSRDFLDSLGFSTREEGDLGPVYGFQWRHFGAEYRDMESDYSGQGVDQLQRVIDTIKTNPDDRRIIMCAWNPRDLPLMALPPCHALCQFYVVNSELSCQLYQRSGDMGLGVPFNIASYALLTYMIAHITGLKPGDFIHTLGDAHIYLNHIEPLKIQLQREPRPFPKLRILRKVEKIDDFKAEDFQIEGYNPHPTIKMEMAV
Chain of TsTS (Q9NDD3 entry or part of it): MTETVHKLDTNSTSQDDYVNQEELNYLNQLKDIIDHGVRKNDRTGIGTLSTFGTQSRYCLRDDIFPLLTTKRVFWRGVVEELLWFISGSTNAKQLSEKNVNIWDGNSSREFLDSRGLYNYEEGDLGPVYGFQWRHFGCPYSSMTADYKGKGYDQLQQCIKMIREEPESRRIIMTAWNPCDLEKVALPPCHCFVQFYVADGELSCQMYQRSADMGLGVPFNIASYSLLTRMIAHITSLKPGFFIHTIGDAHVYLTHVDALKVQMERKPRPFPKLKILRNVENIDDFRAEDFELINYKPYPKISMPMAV
T2 sequence (P07607 whole entry): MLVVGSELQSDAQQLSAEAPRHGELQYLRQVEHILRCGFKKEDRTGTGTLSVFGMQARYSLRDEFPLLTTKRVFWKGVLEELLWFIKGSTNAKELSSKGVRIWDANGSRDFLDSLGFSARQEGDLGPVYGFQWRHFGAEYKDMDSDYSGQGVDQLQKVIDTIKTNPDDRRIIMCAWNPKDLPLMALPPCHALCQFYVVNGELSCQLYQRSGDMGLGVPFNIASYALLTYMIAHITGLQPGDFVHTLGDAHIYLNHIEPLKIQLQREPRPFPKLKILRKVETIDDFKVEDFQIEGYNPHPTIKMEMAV

Compound | remaining activity at 100 µM (hTS; [11]) [%] | remaining activity at 1000 µM (mTS; [12]) [%] | IC50 (TsTS; 250 µM meTHF) [µM] | remaining activity at 1000 µM (TsTS; 250 µM meTHF) [%] | remaining activity at 100 µM (CeTS; [11]) [%] | remaining activity at 1000 µM (hTS; [12]) [%] | IC50 (CeTS; [13]) [µM] | remaining activity at 1000 µM (CeTS; [12]) [%] | also measured
COc1ccc2oc3cccc(O)c3c(=O)c2c1 [1-OH-7-OMe-Xanthone (19), 1-OH-7-OMe-Xanthone] |  |  |  |  |  |  |  |  | IC50 [1, 4]: > 40 µM; IC50 [2, 5]: 40 µM; IC50 (hTS; 20 µM dUMP, 50 µM meTHF): > 1000 µM; remaining activity at 1000 µM (hTS; [6]): 100%; IC50 (mTS; [7]): > 1000 µM; remaining activity at 1000 µM (mTS; [6]): 94%; IC50 (TsTS; 50 µM meTHF): > 1000 µM; remaining activity at 1000 µM (TsTS; 50 µM meTHF): 89%; IC50 (CeTS; [7]): > 1000 µM; remaining activity at 1000 µM (CeTS; [6]): 81%; IC50 [3, 8]: > 40 µM
CC1Oc2c(c3c(c4oc5c(O)c(O)ccc5c(=O)c24)C(C)(C)C(C)O3)C1(C)C (stereo not drawn) [Rheediaxanthone C (18), Rheediaxanthone C] |  |  |  |  |  |  |  |  | IC50 [1, 4]: 11 µM; IC50 [2, 5]: 18.3 µM; IC50 (hTS; 20 µM dUMP, 50 µM meTHF): > 100 µM; remaining activity at 100 µM (hTS; [9]): 57%; remaining activity at 10 µM (mTS; compound 10 µM, 20 µM dUMP, 50 µM meTHF): 77%; remaining activity at 100 µM (mTS; [9]): 39%; IC50 (TsTS; 50 µM meTHF): > 100 µM; remaining activity at 100 µM (TsTS; 50 µM meTHF): 73%; toxicity for the worm (C. elegans): does not show toxicity for the worm; IC50 (CeTS; [7]): > 100 µM; remaining activity at 100 µM (CeTS; [9]): 71%; IC50 [3, 8]: 5.95 µM
CC1(C)CCc2cc3c(cc2O1)OC(c1ccccc1)CC3=O (stereo not drawn) [6-Chromane-O-7-flavanone (11), 6-Chromane-O-7-flavanone] | 37 | 10 | > 1000 | 85 | 24 |  |  |  | remaining activity at 10 µM (hTS; [10]): 100%; remaining activity at 100 µM (mTS; [11]): 91%; remaining activity at 10 µM (CeTS; [10]): 100%
O=C(/C=C/c1ccc(O)c(O)c1)O[C@@H]1C[C@](O)(C(=O)O)C[C@@H](O)[C@H]1O [Chlorogenic acid (3), Chlorogenic acid] |  | 83 | > 1000 | 94 |  | 76 | > 1000 | 82 | IC50 (hTS; 20 µM dUMP, 250 µM meTHF): > 1000 µM; IC50 (mTS; [13]): > 1000 µM
COc1c(C2(O)COc3cc(O)cc(O)c3C2=O)ccc2c1C=CC(C)(C)O2 (stereo not drawn) [Sophoronol (5), Sophoronol] | 75 | 10 | > 100 | 35 | 77 | 8 | > 100 | 8 | remaining activity at 100 µM (mTS; [11]): 75%; remaining activity at 100 µM (TsTS; 250 µM meTHF): 74%
O=C(CCc1ccc(O)cc1)c1c(O)cc(O)cc1O [Phloretin (4), Phloretin] | 86 | 45 | > 1000 | 61 | 82 | 31 | > 100 | 48 | remaining activity at 100 µM (mTS; [11]): 78%
COc1c(O)cc2oc3ccccc3c(=O)c2c1O [1,3-OH-2-OMe-Xanthone (16), 1,3-OH-2-OMe-Xanthone] |  |  | > 100 | 23 |  |  |  |  | IC50 [1]: > 40 µM; IC50 ([2]; U-118-MG): > 40 µM; remaining activity at 100 µM (hTS): 54%; remaining activity at 1000 µM (hTS): 27%; remaining activity at 100 µM (mTS): 67%; remaining activity at 1000 µM (mTS): 32%; IC50 (TsTS; 50 µM meTHF): > 100 µM; remaining activity at 100 µM (TsTS; 50 µM meTHF): 82%; remaining activity at 100 µM (TsTS; 250 µM meTHF): 92%; remaining activity at 1000 µM (TsTS; 50 µM meTHF): 32%; remaining activity at 1000 µM (CeTS): 65%; IC50 (CeTS; [14]): > 1000 µM; IC50 [3]: > 40 µM
COc1cc(/C=C/C(=O)O[C@H]2[C@H](O[C@@H]3O[C@@H](C)[C@H](O)[C@@H](O)[C@H]3O)[C@@H](O)[C@H](OCCc3ccc(O)c(O)c3)O[C@@H]2CO)ccc1O [Leucosceptoside A (13), Leucosceptoside A] |  | 77 |  | > 100 |  | 66 | > 1000 | 83 | IC50 (hTS; 20 µM dUMP, 250 µM meTHF): > 1000 µM; IC50 (mTS; [13]): > 1000 µM
COC(=O)/C=C/C(C)=C\C=C\C(C)=C\C=C\C=C(C)\C=C\C=C(C)\C=C\C(=O)O [Bixin (6), Bixin] |  |  |  |  |  |  |  |  | remaining activity at 667 µM (hTS; compound 667 µM (highest obtained concentration), 20 µM dUMP, 250 µM meTHF): > 100%; IC50 (mTS; [13]): > 667 µM; remaining activity at 667 µM (mTS; [15]): 73%; remaining activity at 67 µM (TsTS; compound 67 µM, 250 µM meTHF): 76%; remaining activity at 667 µM (TsTS; compound 667 µM, 250 µM meTHF): 47%; remaining activity at 67 µM (CeTS; compound 67 µM, 20 µM dUMP, 250 µM meTHF): 93%; remaining activity at 667 µM (CeTS; [15]): 46%
O=C1c2c(O)cccc2C([C@@H]2O[C@H](CO)[C@@H](O)[C@H](O)[C@H]2O)c2cc(CO)cc(O)c21 (stereo partly drawn) [Aloin (2), Aloin] | 94 | 95 | > 1000 | 93 | 83 | 49 | > 100 | 36 | IC50 (mTS; [13]): > 1000 µM
CC(=O)Oc1c(O)cc(-c2oc3cc(O)cc(O)c3c(=O)c2O)cc1O [Myricetin-4′-OAc (7), Myricetin-4′-OAc] | 56 | 49 | > 1000 | 66 | 69 | 31 | > 100 | 28 | IC50 (hTS; 20 µM dUMP, 250 µM meTHF): > 1000 µM; remaining activity at 100 µM (mTS; [11]): 61%
COc1cc(/C=C/C(=O)CC(=O)/C=C/c2ccc(O)c(OC)c2)ccc1O [Curcumin (1), Curcumin] |  |  | > 500 |  |  |  |  |  | remaining activity at 50 µM (hTS; [16]): 86%; remaining activity at 500 µM (hTS; [17]): 20%; remaining activity at 50 µM (mTS; [16]): 83%; remaining activity at 500 µM (mTS; [17]): 37%; remaining activity at 500 µM (TsTS; compound 500 µM, 250 µM meTHF): 73%; remaining activity at 50 µM (CeTS; [16]): 84%; remaining activity at 500 µM (CeTS; [17]): 30%
CC(C)=CCc1c(O)ccc2c1OC(c1ccccc1)CC2=O (racemic) [(±)-7-Hydro-xy-8-C-prenyl flavanone] | 74 | 2 | > 100 | 25 | 65 | 7 | > 100 | 3 | remaining activity at 100 µM (mTS; [11]): 71%; remaining activity at 100 µM (TsTS; 250 µM meTHF): 90%
COc1c(O)cc2oc(-c3ccccc3)c(O)c(=O)c2c1O [Alnusin (12), Alnusin] | 85 | > 100 |  | > 100 |  | 30 | > 1000 | 80 | 
O=C(OCC1=C[C@@H](O)[C@@H]2C=CO[C@@H](O[C@@H]3O[C@H](CO)[C@@H](O)[C@H](O)[C@H]3O)[C@H]12)c1ccc(O)cc1 [Agnuside (8), Agnuside] | 90 | 72 | > 1000 | 63 | 100 | 47 | > 100 | 36 | IC50 (mTS; [13]): > 1000 µM
CC1=C[C@]2(O)C(=O)[C@H](C)C[C@@H]3[C@H](CC[C@](C)(O)C[C@H]2C1=O)C3(C)C [Jatrowediol (10), Jatrowediol] |  |  | > 1000 | 95 |  |  |  |  | remaining activity at 100 µM (hTS): 100%; remaining activity at 1000 µM (hTS): 43%; remaining activity at 1000 µM (mTS): 80%; IC50 (mTS; [14]): > 1000 µM; remaining activity at 1000 µM (CeTS): 77%; IC50 (CeTS; [14]): > 1000 µM
CC12CCC3C(C1)c1c(cc(O)c(C(=O)c4ccccc4)c1OC3(C)C)O2 (stereo not drawn) [Clusiacitran A (9), Clusiacitran A] | 89 | 62 | > 1000 | 95 |  | 47 |  |  | IC50 (mTS; [14]): > 1000 µM; remaining activity at 100 µM (CeTS): 88%; remaining activity at 1000 µM (CeTS): 44%; IC50 (CeTS; [14]): > 100 µM

Source: publication PMC7356228, “Alvaxanthone, a Thymidylate Synthase Inhibitor with Nematocidal and Tumoricidal Activities” (Molecules, 2020)
